Where two headings read alike, the source gives them in different places.

The source of these data is US12577247B2 (BUGWORKS RESEARCH, INC., priority 2021, dated 2026).

Data set [1] can be described thus: Cell based permeability/efflux Caco-2 assay. Conditions: human, Caco-2, 10 μM; for Papp A→B at 120 min, 10 µM: apical to basolateral; for Papp B→A at 120 min, 10 µM: basolateral to apical. The class given is in vitro ADME. How it is done:
Briefly, Permeability in a Caco-2 monolayer was determined at 10 μM. High density Caco-2 cells were obtained with fluent monolayer with trans epithelial electrical resistance (TEER) values greater than 350 ohm·cm^2 in the assay at 21 days of culture in 24 or 96 well insert plates. TEER was measured both before and after performing all the transport experiments. […] Transport buffer, 800 μL Hanks balanced salt sodium (HBSS) (pH 7.4) consisting of 10 mM HEPES without proteins was first dispensed to the basal side of the monolayer. The assay was then initiated by adding 200 μL, of compound solution to the apical side (all test compounds were diluted in HBSS, pH 6.5, with 1% DMSO as co-solvent). Two μL and 200 μL of samples were withdrawn before and at 45- and 120-min post addition of test compound, from the apical donor compartment and the base lateral receiver compartment, respectively. The transwell plates were kept for 120 min of incubation time at 37° C., 5% CO2, 95% relative humidity. At the end of incubation, sample solutions from both donor and receiver wells were mixed with acetonitrile containing internal standard (IS) immediately. Samples were analyzed including starting dosing solution, donor solution, and receiver solution by LC/MS/MS (API-4500). Concentrations of test compound was expressed as area ratio of analytes versus internal standard (IS).
A passive permeability was determined by complete chemical inhibition of the three major efflux transporters, ABCB1 (P-gp), ABCG2 (BCRP) and […] in Caco-2 cells using a cocktail of chemical inhibitors quinidine (P-gp), sulfasalazine (BCRP) and benzbromarone (MRP2)
The mean apparent permeability (Papp, X 10^−[…]) is calculated as follows
[formula] Where dq/dt=rate of transport (rate of transport of compound in the receiver compartment), Co=initial concentration in the donor compartment, A=surface area of the effective filter membrane. Plot the cumulative amount of transported drug against time to obtain rate transport. The percent recovery was calculated using the following equation
In general terms: Passage across Caco-2 layers is used to estimate intestinal permeability.

For data set [2], the target named is T1, A2A receptor (Homo sapiens, UniProt P29274).
T1 construct: host or cells: HEK-293
T1 sequence (P29274 whole entry): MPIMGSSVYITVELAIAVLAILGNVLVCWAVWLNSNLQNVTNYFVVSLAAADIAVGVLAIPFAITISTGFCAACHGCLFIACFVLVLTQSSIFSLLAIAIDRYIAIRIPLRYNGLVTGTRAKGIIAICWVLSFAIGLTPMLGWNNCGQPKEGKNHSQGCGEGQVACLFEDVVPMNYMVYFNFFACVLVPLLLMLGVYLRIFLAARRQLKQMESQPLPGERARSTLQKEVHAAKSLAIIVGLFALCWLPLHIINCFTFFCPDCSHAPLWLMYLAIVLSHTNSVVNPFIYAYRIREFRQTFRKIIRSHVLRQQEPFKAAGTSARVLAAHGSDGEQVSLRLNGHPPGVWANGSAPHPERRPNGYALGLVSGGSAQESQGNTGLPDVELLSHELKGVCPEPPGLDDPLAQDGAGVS
Kind of data set: A2aR antagonism IC50, cAMP TR-FRET in HEK-293 cells, high concentration of adenosine (30 μM).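 Further: compounds added 10 min before adenosine, then 30 min stimulation at room temperature in buffer with 100 µM rolipram and 30 µM EHNA, signal read 1 h after detection reagents.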 The class given is cell-based. Conditions: HEK-293 cells expressing A2A receptor; agonist adenosine 30 μM; 2% HSA; inhibition of cAMP; read-out: A2AR IC50 (nM) (@30 μM Adenosine).

Data set [3] can be described thus: Plasma protein binding, equilibrium dialysis, rat. The format is in vitro ADME. The note with it: plasma (10% plasma, extrapolated to 100% plasma), Sprague-Dawley plasma, 18 hours at 37° C. The procedure:
Protein binding is measured using the equilibrium dialysis technique. Compound is added to 10% plasma giving a concentration of 10 μM and dialysed with isotonic buffer for 18 hours at 37° C. The plasma and buffer solutions are analysed using generic LC UV/MS and the first apparent binding constant for the compound derived. The binding constant is then used to determine the % free in 100% plasma
The percentage of plasma bound/unbound fraction preparation was calculated as follows
[formula] [formula] where, • Tc=Total plasma concentration was determined by the calculated concentration on the plasma side of the chamber • Fc=[…] was determined by the calculated concentration on the buffer side of the chamber • To=Total compound concentration determined before analysis.

The target of data set [4] is T2, A2B receptor (Homo sapiens, UniProt P29275).
T2 sequence (P29275 1-332): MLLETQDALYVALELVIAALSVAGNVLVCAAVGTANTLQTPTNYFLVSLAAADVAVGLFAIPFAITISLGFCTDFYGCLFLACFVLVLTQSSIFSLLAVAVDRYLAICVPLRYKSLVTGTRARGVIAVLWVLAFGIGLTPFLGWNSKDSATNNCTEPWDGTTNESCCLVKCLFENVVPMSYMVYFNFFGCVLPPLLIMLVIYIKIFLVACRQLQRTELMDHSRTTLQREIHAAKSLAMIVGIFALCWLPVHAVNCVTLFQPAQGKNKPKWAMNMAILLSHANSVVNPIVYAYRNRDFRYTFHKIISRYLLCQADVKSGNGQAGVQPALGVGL
Put plainly: A2bR antagonism IC50, cAMP TR-FRET in HEK-293 cells, high concentration of adenosine (30 μM).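 Further: compounds preincubated 10 min with cells, then adenosine stimulation 30 min at room temperature in buffer with Rolipram 100 µM and EHNA 30 µM, TR-FRET read after 1 h.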 Conditions: A2BR IC50 (nM) (@30 μM Adenosine), HEK-293 cells expressing A2B receptor; agonist adenosine 30 μM; 2% HSA; inhibition of cAMP.

Data set [5] is described as follows: Pharmacokinetic study in mice. The class given is in vivo, CD1 mice. Conditions: for Cmax / Tmax: po. How it is done: Intravenous (i.v) and Oral formulations for pharmacokinetic (PK) studies was formulated in different vehicles and excipients to achieve the desirable solubility for intravenous and Oral routes of administration.
Appropriate amount of the test compound was weighed and dissolved in required volume of the vehicles, followed by vertexing for a few seconds to dissolve the compound. Then the solution (or) suspension was sonicated at room temperature for 5 minutes to obtain a visually clear solution and or homogenous suspension. All the formulations were prepared freshly at room temperature before dosing.
The rodent pharmacokinetic studies were carried out in male Sprague-Dawley (SD) rats (8-12 weeks of age, weighing 280±20 g at the time of dosing) and CD1 mice (8-12 weeks of age, weighing 30-35 g body weight at the time of dosing) to estimate the plasma clearance, volume of distribution and terminal half-life, area under curve (AUC) and peak plasma concentration (Cmax) and time of peak plasma concentration (Tmax) following intravenous and oral routes of administration. The detailed experimental design is described in the Table 8 below.
Rats were anaesthetized by Isoflurane anaesthesia. The jugular and femoral veins of rat were cannulated, and the study was performed 48 h post cannulation. At each time point about 100 μL, of rat blood was collected from the jugular vein into a labelled microfuge tube containing 200 mM K2EDTA solution (20 μL, per mL of blood) and equivalent volume of heparinized saline was replaced following sample collection. Similarly, 25 μL, of mice blood was collected from the saphenous vein into a labelled microfuge tube containing 200 mM K2EDTA solution
Serial blood sampling method was used for blood collection. Blood samples were collected at pre-dose, 0.25 h, 0.5, 1, 2, 4, 6, 8 and 24-hours post dose. The blood samples were processed to obtain the plasma samples within 30 min of scheduled sampling time. All plasma samples were stored −70° C. until bioanalysis.
Plasma samples were analysed for a fit-for purpose LC-MS/MS method with a lower limit of quantification. The pharmacokinetic parameters were calculated using the non-compartmental analysis tool of validated Phoenix® WinNonlin® software (Certara, USA version 8.4) with linear up and log down method for estimating AUC.
All animals in intravenous (IV bolus) group were under fed state and animals in oral groups were fasted overnight (min 12 hr) before dose administration and food was provided 4 h post dose administration. All animals were received water ad libitum during the study period. The mean (±SD) pharmacokinetic parameters of Example 13, Example 122b & Example 39 following IV bolus and Oral dose administration in Mice/Rat and Dog is provided in Table-9.

Where [6] appears, read: CD1, mouse, plasma, iv, i.v, 15 mg/kg.
Setting [7] is: CD1, mouse, plasma, 30 mg/kg, p.o, 30 mg/kg, read-out: Cmax (head Co*/).
Where [8] appears, read: CD1, mouse, plasma, 30 mg/kg, p.o, 30 mg/kg, read-out: Tmax (head Tma).

Take `CCc1c(C)nn2c(N)c(C#N)c(NCCc3ccn(C4(CO)CC4)n3)nc12` [Example 39, 7-amino-3-ethyl-5-((2-(1-(1-(hydroxymethyl)cyclopropyl)-1H-pyrazol-3-yl)ethyl)amino)-2-methylpyrazolo[1,5-a] pyrimidine-6-carbonitrile]: in data set [1], the Papp A→B (usually the apparent permeability from the apical to the basolateral side of a cell layer) at 120 min, 10 µM is 18.4 ×10⁻⁶ cm/s and the Papp B→A (usually the apparent permeability from the basolateral to the apical side of a cell layer) at 120 min, 10 µM was 18.5 ×10⁻⁶ cm/s. Besides, the IC50 – broadly, the concentration at which inhibition is half-maximal – in data set [2] is 120 nM. For the same compound, the fraction unbound (commonly the share of the substance not bound to proteins or other matrix) at 18 h, 10 µM in data set [3] is 0.249. The IC50 in data set [4] turned out to be 1830 nM. Moreover, in data set [5] (setting [6]), the clearance (as a rule, the volume of plasma or blood freed of the substance per unit of time) was 58 ± 14 mL/min/kg and the half-life (usually the time in which the quantity being followed falls by half) is 54 min. For the same compound, the Vd in data set [5] (CD1, mouse, plasma, iv, i.v, 15 mg/kg, read-out: Vss) was 1 L/kg. For the same compound, the bioavailability (in general, the share of a dose that reaches the circulation, judged against a reference dose that is usually intravenous) in data set [5] (CD1, mouse, plasma, oral 30 mg/kg vs IV bolus 15 mg/kg, read-out: % F (bioavailability)) was 15%. For the same compound, the Cmax in data set [5] (setting [7]) was determined as 3300 ng/mL. Also, in data set [5] (setting [8]), the Tmax (in general, the time at which the peak concentration occurs) is 12 min. The “Co (head Co*/)” value in data set [5] (i.v, 15 mg/kg) is listed as 2236 ng/m. The “Oral exposure in mice” value in data set [5] (oral, compared with Example 13) is “High oral exposure”.

As to `Cc1cccc(CCNc2nc3c(C)c(C)nn3c(N)c2C#N)n1` [Example 13, 7-amino-5-((2-(6-methylpyridin-2-yl)ethyl)amino)-2,3-dimethylpyrazolo[1,5-a]pyrimidine-6-carbonitrile], in data set [1], the apical-to-basolateral permeability (Papp A→B) at 120 min, 10 µM worked out at 58 ×10⁻⁶ cm/s and the Papp B→A at 120 min, 10 µM was determined as 19.5 ×10⁻⁶ cm/s. Moreover, the 50% inhibitory concentration (IC50) in data set [2] came to 300 nM. Besides, in data set [3], the fraction unbound at 18 h, 10 µM is 0.0964. The IC50 in data set [4] was 2320 nM. In addition, in data set [5] (setting [7]), the Cmax amounted to 236 ng/mL. In data set [5] (setting [8]), the Tmax came to 12 min.

Take `CCc1c(C)nn2c(N)c(C#N)c(NCCc3ccn(C4COCC4CO)n3)nc12` (single isomer, unassigned; (-)) [Example 122b, (−)-7-amino-3-ethyl-5-((2-(1-(4-(hydroxymethyl)tetrahydrofuran-3-yl)-1H-pyrazol-3-yl)ethyl)amino)-2-methyl pyrazolo[1,5-a]pyrimidine-6-carbonitrile]: in data set [1], the Papp A→B at 120 min, 10 µM was 14.4 ×10⁻⁶ cm/s. In data set [1], this compound registered a Papp B→A at 120 min, 10 µM of 15.9 ×10⁻⁶ cm/s. Moreover, the IC50 turned out to be 130 nM in data set [2] and 521 nM in data set [4]. In data set [3], the fraction unbound at 18 h, 10 µM was 0.139. In addition, in data set [5] (CD1, mouse, plasma, 100 mg/kg oral), the AUC(0-t) – broadly, the area under the concentration-time curve up to a stated or last time point – amounted to 10500 ng·h/mL. The Cmax is 13800 ng/mL in data set [5] (CD1, mouse, plasma, 100 mg/kg, 100 mg/kg oral, read-out: C. (Cmax)) and 13800 ng/mL in data set [5] (CD1, mouse, plasma, 100 mg/kg, p.o, 100 mg/kg, read-out: Cmax (head Co*/)). Further, the Tmax in data set [5] (CD1, mouse, plasma, 100 mg/kg, 100 mg/kg oral, read-out: Tmax) stood at 15 min; in data set [5] (CD1, mouse, plasma, 100 mg/kg, p.o, 100 mg/kg, read-out: Tmax (head Tma)), 12 min.
